What was measured:
Type in all cases: cell-based
[1] = tested on: Escherichia coli (E. coli - ATCC #10536); assay: Example 2: high resolution MBC synergy assay in phosphate buffer containing 5% dipropylene glycol; conditions: for ΣFBC: calculated from Ca/MBCA + Cb/MBCB; for Ca, end-point (MBC) of first component thymol in the mixture / MBC of component alone (MBCA, MBCB) / Cb, end-point (MBC) of second component carveol in the mixture / Cb, end-point (MBC) of second component perillyl alcohol in the mixture: complete kill in 15 seconds; for MBC of component alone (MBCA, MBCB): phosphate buffer with 5% DPG, about 1×10^8 bacteria per mL; for Cb, end-point (MBC) of second component carveol in the mixture / Cb, end-point (MBC) of second component perillyl alcohol in the mixture: mixture with thymol at Ca
Protocol: In this Example, a wide range of combinations of chemicals was tested by conducting high resolution MBC assays of carveol or perillyl alcohol in the presence of various concentrations of thymol. […] The MBC plate was inoculated one column at a time with the test microorganism. An aliquot of the inoculated well was transferred at 15 seconds to a plate containing a neutralizing agent (D/E Neutralizing Broth), mixed and held for 5 minutes before being transferred to a growth plate containing trypticase soy broth (TSB). The TSB plate was incubated at 37° C. and read for the presence/absence of growth at 24 hours. […] This microorganism is representative of natural contaminants in many consumer and industrial applications. […] The tables show the specific combinations of two components; results against the microorganism tested; the end-point activity in weight % measured by the MBC for the first component alone (thymol, MBCA), for the second component alone ([…] alcohol, MBCB), for the first component in the mixture (Ca) and for the second component in the mixture (Cb); the calculated ΣFBC value; and the range of synergistic ratios for each combination tested (first component to second component or A/B) against the particular microorganism.

[2] = tested on: Escherichia coli (E. coli ATCC #10536); assay: Example 3: automated assessment of efficacy in surfactant base (2.85% sodium cocoyl glycinate + 1.85% sodium lauroamphoacetate, pH 10); conditions: for MBC (minimum biocidal concentration): component alone in 2.85% sodium cocoyl glycinate + 1.85% sodium lauroamphoacetate solution at pH 10; for bactericidal efficacy in combination with thymol (in words): in combination with thymol at concentrations lower than their MBC in the same surfactant formulation, complete kill in all 4 or 3 replicates
Protocol: In these examples, the efficacy of combinations of thymol and menthadiene alcohols were tested in a surfactant cleansing formulation comprising 2.85% sodium cocoyl glycinate and 1.85% sodium lauroamphoacetate. This corresponds to a 50% in use dilution with water of a typical neat formulation containing 5.7% cocoyl glycinate and 3.7% % sodium lauroamphoacetate during hand washing. Solutions were prepared such that the concentrations of the surfactant components and test actives were 1.1 times the final desired concentration in order to allow for dilution with the bacterial inoculum in the test. The solutions were manually adjusted to pH 10.0 by dropwise addition of sodium hydroxide solution, as measured with a pH meter at ambient temperature. Solutions of the thymol and/or menthadiene alcohols were prepared at a maximum of 24 hours before testing. The same thymol and menthadiene alcohols were used as in Example 1.
The efficacy of the combinations of the present invention was determined against the same bacterium as in Example 1, Escherichia coli (E. coli ATCC #10536), at a concentration of approximately 1×10^8 bacteria per mL.
Tests were conducted using standard microtiter plate assays using an automated liquid handling system. 270 μl of the surfactant test solution was pipetted into each well of the microtitre plate (Nunc F Gamma Irradiated 96F untreated microtitre plates of clear polystyrene) and 30 μl of the bacterial suspension was then added. After exactly 15 seconds of bacterial exposure, a 30 μl volume of bacterial cells was withdrawn and transferred to 270 μl of D/E quench solution. After 5 minutes in the D/E quench, the optical density (OD) was measured for each plate in turn at two specific wavelengths (450 nm and 590 nm). These provide a dual check of antimicrobial activity, as the OD450 reading is specific for the yellow colour of D/E quench when bacterial growth is observed, whereas OD590 is specific for the initial purple colour of the D/E quench which is retained if no bacterial growth is observed. […] Delta OD values were calculated by subtracting […] at time=16 hours. […] To identify antibacterially efficacious systems (those preventing appreciable bacterial growth after incubation), the following threshold changes in OD readings have been adopted: if (1). OD450 increases by less than 0.2 absorbance unit (AU) on incubation and (2). […] The number of replicate wells showing either bacterial growth or no growth is also readily assessed by eye by following the colour change. […]
In each case, binary mixtures were assessed in the weight to weight ratio of thymol to menthadiene alcohol of 1:2.5.

[3] = tested on: Escherichia coli (10536 strain); assay: Example 1: 15 second contact suspension kill assay, mean bacterial survival and MBC; conditions: component alone; lowest concentration giving complete kill after 15 seconds; upper boundary to the MBC

SMILES: Cc1ccc(C(C)C)c(O)c1 [thymol, 2-isopropyl-5-methylphenol]
- ΣFBC [1]: 1.00
- Ca, end-point (MBC) of first component thymol in the mixture ([1]; mixture with carveol at Cb, thymol to carveol ratio 1 to 0.05): 0.5 weight %
- Ca, end-point (MBC) of first component thymol in the mixture ([1]; mixture with carveol at Cb, thymol to carveol ratio 1 to 0.08): 0.6 weight %
- Ca, end-point (MBC) of first component thymol in the mixture ([1]; mixture with carveol at Cb, thymol to carveol ratio 1 to 0.19): 0.4 weight %
- Ca, end-point (MBC) of first component thymol in the mixture ([1]; mixture with carveol at Cb, thymol to carveol ratio 1 to 0.25): 0.3 weight %
- Ca, end-point (MBC) of first component thymol in the mixture ([1]; mixture with carveol at Cb, thymol to carveol ratio 1 to 0.5): 0.2 weight %
- Ca, end-point (MBC) of first component thymol in the mixture ([1]; mixture with carveol at Cb, thymol to carveol ratio 1 to 3.5): 0.1 weight %
- Ca, end-point (MBC) of first component thymol in the mixture ([1]; mixture with carveol at Cb, thymol to carveol ratio 1 to 4.38): 0.08 weight %
- Ca, end-point (MBC) of first component thymol in the mixture ([1]; mixture with perillyl alcohol at Cb, thymol to perillyl alcohol ratio 1 to 0.17): 0.3 weight %
- Ca, end-point (MBC) of first component thymol in the mixture ([1]; mixture with perillyl alcohol at Cb, thymol to perillyl alcohol ratio 1 to 0.5): 0.2 weight %
- Ca, end-point (MBC) of first component thymol in the mixture ([1]; mixture with perillyl alcohol at Cb, thymol to perillyl alcohol ratio 1 to 2.5): 0.08 weight %
- MBC (minimum biocidal concentration) [2]: 0.2 % w/v

SMILES: C=C(C)C1CC=C(C)C(O)C1 (stereo not shown) [carveol, 2-methyl-5-(prop-1-en-2-yl)cyclohex-2-enol]
- MBC (minimum biocidal concentration) [3]: 0.3 % w/v
- ΣFBC [1]: 1.00
- MBC of component alone (MBCA, MBCB) [1]: 0.7 weight %
- Cb, end-point (MBC) of second component carveol in the mixture ([1]; thymol to carveol ratio 1 to 0.05): 0.025 weight %
- Cb, end-point (MBC) of second component carveol in the mixture ([1]; thymol to carveol ratio 1 to 0.08): 0.05 weight %
- Cb, end-point (MBC) of second component carveol in the mixture ([1]; thymol to carveol ratio 1 to 0.25): 0.075 weight %
- Cb, end-point (MBC) of second component carveol in the mixture ([1]; thymol to carveol ratio 1 to 0.5): 0.1 weight %
- Cb, end-point (MBC) of second component carveol in the mixture ([1]; thymol to carveol ratio 1 to 4.38): 0.35 weight %
- bactericidal efficacy in combination with thymol (in words) [2]: 15 second bactericidal efficacy

SMILES: C=C(C)[C@@H]1CC=C(CO)CC1 [perillyl alcohol, (S)-(4-(prop-1-en-2-yl)cyclohex-1-en-1-yl)methanol]
- MBC (minimum biocidal concentration) [3]: 0.1 % w/v
- ΣFBC [1]: 1.00
- MBC of component alone (MBCA, MBCB) [1]: 0.3 weight %
- Cb, end-point (MBC) of second component perillyl alcohol in the mixture ([1]; thymol to perillyl alcohol ratio 1 to 0.13): 0.025 weight %
- Cb, end-point (MBC) of second component perillyl alcohol in the mixture ([1]; thymol to perillyl alcohol ratio 1 to 0.17): 0.05 weight %
- Cb, end-point (MBC) of second component perillyl alcohol in the mixture ([1]; thymol to perillyl alcohol ratio 1 to 0.38): 0.075 weight %
- Cb, end-point (MBC) of second component perillyl alcohol in the mixture ([1]; thymol to perillyl alcohol ratio 1 to 0.5): 0.1 weight %
- Cb, end-point (MBC) of second component perillyl alcohol in the mixture ([1]; thymol to perillyl alcohol ratio 1 to 2.5): 0.2 weight %
- MBC (minimum biocidal concentration) [2]: 0.5 % w/v
- bactericidal efficacy in combination with thymol (in words) [2]: 15 second bactericidal efficacy

From patent US9271492B2, “Antimicrobial composition” (Rohm and Haas Company, priority 2011, dated 2016)
